Reference: patent publication EP0393530B1, “5,11-dihydro-6H-pyrido[2,3,-b][1,4]benzodiazepin-6-ones and -thiones and their use in the prevention or treatment of AIDS” (BOEHRINGER INGELHEIM PHARMACEUTICALS INC., priority 1989, dated 1990)

How the values were obtained:
[1] = target: T1, HIV-1 reverse transcriptase (Human immunodeficiency virus type 1 group M subtype B, UniProt P03367); experiment: Reverse Transcriptase (RT) Assay; type: biochemical; conditions: RNA-dependent DNA polymerase activity
T1 construct: Reverse transcriptase enzyme from the LAV strain of Human Immunodeficiency Virus (HIV-1); made in house; host or cells: E. coli JM109, clone pBRTprt1+ in vector pIBI21 (lac promoter, IPTG induction)
From the text: Utilizing the Reverse Transcriptase (RT) Assay described below, compounds can be tested for their ability to inhibit the RNA-dependent DNA polymerase activity of HIV RT. Certain specific compounds, described in the Examples which appear below, were so tested.
Among the enzymes for which Human Immunodeficiency Virus (HIV-1) encodes is a reverse transcriptase (1), so-named because it transcribes a DNA copy from an RNA template. This activity can be quantitatively measured in a cell-free enzyme assay which has been previously described (2), and is based upon the observation that reverse transcriptase is able to use a synthetic template [poly r(C) primed with oligo d(G)] to transcribe a radio-labelled, acid-precipitable DNA strand utilizing ³H-dGTP as a substrate.
a) Preparation of the enzyme Reverse transcriptase enzyme from the LAV strain of Human Immunodeficiency Virus (HIV-1) (1) was isolated from the bacterial strain JM109 (3) expressing the DNA clone pBRTprt1+ (2) which is under the control of the lac promotor in the expression vector pIBI21 (4). An overnight culture grown in 2XYT medium (37°C, 225 rpm) (5) supplemented with 100 µg/ml ampicillin for positive selection is inoculated at a 1:40 dilution into M9 medium supplemented with 10µg/ml thiamine, 0.5% casamino acids, and 50 µg/ml ampicillin (5). The culture is incubated (37°C, 225 rpm) until it reaches an OD540 of 0.3-0.4. At that time the repressor inhibitor IPTG (isopropyl b-D-thiogalactopyranoside) is added to 0.5mM and incubated for 2 additional hours. Bacteria are pelleted, resuspended in a 50mM Tris, 0.6mM EDTA, 0.375M NaCl buffer and digested by the addition of lysozyme (1mg/ml) for 30 minutes on ice. The cells are lysed by the addition to 0.2% NP-40 and brought to 1M NaCl. After removal of the insoluble debris by centrifugation, the protein is precipitated by the addition of 3 volumes of saturated aqueous ammonium sulfate. The enzyme is pelleted, resuspended in RT buffer (50mM Tris pH 7.5, 1mM EDTA, 5mM DTT, 0.1% NP-40, 0.1M NaCl, and 50% glycerol) and stored at -70°C for further use. b) Composition of 2X concentrated stock reaction mixture
The 2X concentrated stock reaction mixture is aliquoted and stored at -20°C. The mixture is stable and thawed for use in each assay. This enzyme assay has been adapted to a 96 well microtiter plate system, and has been previously described (6). Tris buffer (50 mM, pH 7.4), vehicle (solvent diluted to match the compound dilution), or compounds in vehicle are dispensed into 96-well miciotiter plates (10µl/well; 3 wells/compound). The HIV RT enzyme is thawed, diluted in 50mM Tris pH 7.4 so that fifteen µl of diluted enzyme contain 0.001 Unit (one unit is that amount of enzyme to transform 1 micromole of substrate per minute at 25°C), and 15µl are dispensed per well. Twenty µl of 0.12-0.5M EDTA are added to the first three wells of the microtiter plate. EDTA chelates the Mg⁺⁺ present and prevents reverse transcription. This group serves as background polymerization which is subtracted from all other groups. Twenty-five µl of the 2X reaction mixture are added to all wells and the assay is allowed to incubate at room temperature for 60 minutes. The assay is terminated by precipitating the DNA in each well with 50µl of trichloracetic acid (TCA) (10% w/v) in sodium pyrophosphate (1% w/v). The microtiter plate is incubated for 15 minutes at 4°C and the precipitate is fixed onto #30 glass fiber paper (Schleicher & Schuell) using a Skatron semi-automatic harvester. The filters are then washed with additional TCA (5%) containing sodium pyrophosphate (1%), rinsed with aqueous ethanol (70%), dried, and transferred to scintillation vials (6). Each vial receives 2 mls of scintillation cocktail and is counted in a Beckman beta counter.
The calculation for percent inhibition is as follows: [formula]

[2] = system: HTLV-IIIB strain of HIV-1; experiment: Human T-Cell Culture Assay (syncytia formation in c8166 cells); type: cell-based; conditions: Human immunodeficiency virus 1, IIIB, 96 h, syncytia four days after virus challenge
Procedure: In order to confirm that compounds which are active in the RT Assay also have the ability to inhibit HIV replication in a living system, compounds according to the invention were also tested in the Human T-Cell Culture Assay described below.
Assay Theory: Formation of syncytia is a feature of in vitro cultures of CD4+ T-cells infected with HIV-1. In this assay, T-cells are treated with a putative replication inhibiting compound and then infected with HIV-1. After incubation the culture is checked for the formation of syncytia. The absence or reduction is the number of syncytia is used as a measure of the test compound's ability to inhibit HIV replication.
Assay Method: The target cells, designated c8166, are a subclone of human lymphoma cells of T-cell origin and are established at an initial density of 5x10⁴ per 100 µl in RPMI 1640 (+ 10% fetal bovine serum) culture medium in 96 well flat bottom plates. A selected amount of test compound, dissolved in DMSO is included. After 24 hours, 50-100 TCID50's (the dose that results in induced effect in 50% of test cultures) of the HTLV-IIIB strain of HIV-1 (2) are innoculated into each culture. Control cultures receive compound or virus only. […] The percent inhibition by the test compound is determined by comparison with control values. […]

[3] = MTT Assay for Cellular Cytotoxicity; type: cell-based; conditions: human, H9 cells, five days, EC₅₀ called the highest non-toxic concentration, read-out: Cytotoxity Assay (EC₅₀)
Procedure: In order to roughly assess the cytotoxicity of the compounds provided by the invention, several such compounds were tested in the MTT Cellular Cytotoxicity Assay described below. Compounds having a relatively high EC₅₀ are preferred.
The MTT [3-(4,5-dimethylthiazol-2-yl)-2,5-diphenyl tetrazolium bromide) assay is based on cleavage of tetrazolium bromide by metabolically active cells, resulting in a highly quantitative blue color. This assay has been previously described (1) but his been optimized for the purposes of the testing reported herein.
The H9 cell line (2), an established human lymphoma suspension cell line grown in RPMI 1640 supplemented with 10% fetal bovine serum is used as the target cell line in the assay. Cells (100µl) are plated in microtest plate wells at a concentration of 10⁵ cells per ml in the presence of varying concentrations of inhibitor. The cells are incubated at 37°C in a humidified CO₂ incubator. Five days later, 20µl of MTT (5mg/ml in RPMI 1640, sonicated, 0.2 micron filtered, and stored at 4°C) is added to each well. After 4 hours additional incubation at 37°C, 60µl of Triton-X is added to each well and thoroughly mixed to aid the solubilization of the crystals. Absolute ethanol (5µl) is added to each well and the resulting mixture is incubated for 30 minutes at 60°C and immediately read on a plate reader (Dynatech) at a wavelength of 570nm. […]

Row | Compound | inhibition at 10 µg/mL [1] | other results
1 | C=C(Cl)CN1C(=O)c2ccccc2N(CC)c2ncccc21 [Example 1, 5-(2-Chloro-2-propenyl)-11-ethyl-5,11-dihydro-6H-pyrido [2,3-b][1,4]benzodiazepin-6-one] | 41% | 
2 | CCN1c2ccccc2C(=O)Nc2cccnc21 [Example 9b, 11-Ethyl-5,11-dihydro-6H-pyrido[2,3-b][1,4]benzodiazepin-6-one] | 82% | 
3 | Cc1ccc2c(c1)C(=O)N(C)c1cccnc1N2C [Example 8, 5,8,11-Trimethyl-5,11-dihydro-6H-pyrido[2,3-b][1,4]benzodiazepin-6-one] | 40% | 
4 | O=C1Nc2cccnc2Nc2ccccc21 [Example 9c, 5,11-dihydro-6H-pyrido[2,3-b][1,4]benzodiazepin-6-one] | 55% | 
5 | CCN1c2ccc(C)cc2C(=O)N(C)c2cccnc21 [Example 4, 5,8-Dimethy-11-ethyl-5,11-dihydro-6H-pyrido[2,3-b][1,4]benzodiazepin-6-one] | 91% | inhibition at 19 µM ([2]; @19µM): 100%; CC50 at 120 h [3]: 40 µM
6 | Cc1ccc2c(c1)C(=O)N(C)c1ccc(C)nc1N2C [Example 2, 2,5,8,11-Tetramethyl-5,11-dihydro-6H-pyrido[2,3-b][1,4]benzodiazepin-6-one] | 50% | 
7 | CN1c2ccccc2C(=O)Nc2cccnc21 [Example 9a, 11-Methyl-5,11-dihydro-6H-pyrido[2,3-b][1,4]benzodiazepin-6-one] | 17% | 
8 | CC(C)(C)OC(=O)CN1c2ccccc2C(=O)Nc2cccnc21 [Example 6] | 86% | 
9 | Cc1ccc2c(n1)N(C)c1c(C)cccc1C(=O)N2C [Example 5, 2,5,10,11-Tetramethyl-5,11-dihydro-6H-pyrido[2,3-b][1,4]benzodiazepin-6-one] | 84% | 
10 | CCN1C(=O)c2ccccc2N(CC)c2ncccc21 [Example 9g, 5,11-Diethyl-5,11-dihydro-6H-pyrido[2,3-b][1,4]benzodiazepin-6-one] | 87% | inhibition at 75 µM ([2]; @75µM): 100%; CC50 at 120 h [3]: 100 µM
11 | C=CCN1C(=O)c2ccccc2N(CC)c2ncccc21 [Example 9h, 5-(2-Propenyl)-11-ethyl-5,11-dihydro-6H-pyrido[2,3-b][1,4]benzodiazepin-6-one] | 70% | 
12 | CCN1C(=O)c2cccc(C)c2N(CC)c2ncccc21 [Example 3, 5,11-Diethyl-10-methyl-5,11-dihydro-6H-pyrido[2,3-b][1,4]benzodiazepin-6-one] | 87% | 
13 | CCN1C(=O)c2ccccc2N(C)c2ncccc21 [Example 9d, 5-Ethyl-11-methyl-5,11-dihydro-6H-pyrido[2,3-b][1,4]benzodiazepin-6-one] | 24% | 
14 | CCN1c2ccccc2C(=O)N(C)c2cccnc21 [Example 9f, 5-Methyl-11-ethyl-5,11-dihydro-6H-pyrido[2,3-b][1,4]benzodiazepin-6-one] | 94% | 
15 | CCN1C(=O)c2ccccc2N(C)c2nc(Cl)ccc21 [Example 7, 2-Chloro-5-ethyl-11-methyl-5,11-dihydro-6H-pyrido[2,3-b] [1,4]benzodiazepin-6-one] | 43% | 
16 | CCCN1C(=O)c2ccccc2N(C)c2ncccc21 [Example 9e, 5-n-Propyl-11-methyl-5,11-dihydro-6H-pyrido[2,3-b][1,4]benzodiazepin-6-one] | 38% | 
